How the values were obtained:
[1] = system: activated mouse tEnd.1 cells (E-selectin mediated adhesion); assay: Inhibition of adhesion of SM colonic carcinoma cells to IL-1β-activated mouse tEnd.1 endothelial cell monolayers; type: cell-based; conditions: for inhibition of adhesion of SM cells to activated mouse tEnd.1 cells: IL-1β-activated tEnd.1 monolayers, result in words (FIG. 4, 5A, 5B)
Text: The mouse endothelioma cell lines, eEnd.2, sEnd.1, tEnd.1, and bEnd.4 were kindly provided by Dr. R. Lindsay Williams at the Ludwig Institute for Cancer Research, […], Austria. These cell lines, originally derived from a subcutaneous (sEnd.1), thymic (tEnd.1), embryonal (eEnd.2), and brain (bEnd.4) hemangliomas produced in transgenic mice expressing polyoma middle T antigen (Williams et al., Cell 52:121-131 (1988)). The cells were maintained in Dulbecco's modified Eagle's medium containing 10% fetal calf serum. Mouse endothelioma cell lines were cultured in 96-well tissue culture plates and activated with 10 units/ml IL-1β (Sigma) and then washed with Dulbecco's modified Eagle's medium containing 5% fetal calf serum before the colonic carcinoma cells were added. As the control, non-activated mouse endothelial cells were prepared identically and used in parallel for the adhesion assays. The adhesion and inhibition of the adhesion by soluble lamp-1 and soluble leukosialin were carried out exactly as described previously (Sawada et al., supra).
Inhibition by sialyl Le^x-positive glycolipid, NeuNAcα2→3Galβ1→4-(Fucα1→3)GlcNAcβ1→3Galβ1→4Glc→Cer was tested after the glycolipid was incorporated into liposomes (Phillips et al., Science 250:1130-1132 (1990)). Paragloboside, NeuNAcα2→3Galβ1→4GlcNAcβ1→3Galβ1→4Glc→Cer was used as a control glycolipid. Sialyl Le^x glycolipid (Kameyama et al., Carbohydr. Res. 209:C1-C4 (1991)) and paragloboside were kindly provided by Drs. Akira Hasegana, Gifu University, Japan, and Michiko Fukuda at this institute, respectively. In order to determine if sialyl Le^x structure on the human colonic cells are recognized by mouse endothelial cells, the adhesion was assayed after the colonic cells were preincubated with anti-sialyl Le^x antibody (CSLEX, IgM) or mouse anti-Le^x monoclonal antibody (anti-PMN-6, IgM). The anti-PMN-6 antibody (Ball and Fanger, Blood 61:456-463 (1983)) was kindly provided by Dr. Ball of the Dartmouth Medical School.
First, the binding of the cell line with the highest adhesion efficiency was tested in the presence of a sialyl Le^x containing glycolipid. SM cells were subjected to adhesion to activated mouse tEnd.1 cells as described in Example IV (and FIG. 3) (open bar), or as in FIG. 3 after pretreatment of the activated monolayers with liposomes containing sialyl Le^x glycolipid (hatched bars), or after pretreatment with liposomes containing the control glycolipid paragloboside (cross-hatched bar). The amount of glycolipid is shown in μg/ml at the x axis. The adhesion to non-activated mouse endothelial cells is shown by the closed bar. Data correspond to the fraction of applied cells still adherent to tEnd.1 cells after washing and are mean and standard deviation from four replicate assays.
The adhesion of SM cells to activated mouse tEnd.1 cells was tested for inhibition by soluble lamp-1 (FIG. 5A) or soluble leukosialin (FIG. 5B). The inhibition by soluble lamp-1 or soluble leukosialin derived from sialyl Le^x positive CHO cells is shown by hatched bars.
Inhibition by control soluble lamp-1 or control soluble leukosialin, which were derived from sialyl Le^x negative CHO cells, is shown by cross-hatched bars. The open bar represents the control without the inhibitors while the closed bar represents the adhesion to unstimulated mouse tEnd.1 monolayers. The experiments shown in FIGS. 5A and 5B were carried out at the same time.

[2] = biological target: mouse E-selectin on IL-1β-activated mouse tEnd.1 endothelioma cells (mouse) (UniProt Q00690); assay: cell-based or functional assay
Sequence of UniProt Q00690 (Q00690 22-612): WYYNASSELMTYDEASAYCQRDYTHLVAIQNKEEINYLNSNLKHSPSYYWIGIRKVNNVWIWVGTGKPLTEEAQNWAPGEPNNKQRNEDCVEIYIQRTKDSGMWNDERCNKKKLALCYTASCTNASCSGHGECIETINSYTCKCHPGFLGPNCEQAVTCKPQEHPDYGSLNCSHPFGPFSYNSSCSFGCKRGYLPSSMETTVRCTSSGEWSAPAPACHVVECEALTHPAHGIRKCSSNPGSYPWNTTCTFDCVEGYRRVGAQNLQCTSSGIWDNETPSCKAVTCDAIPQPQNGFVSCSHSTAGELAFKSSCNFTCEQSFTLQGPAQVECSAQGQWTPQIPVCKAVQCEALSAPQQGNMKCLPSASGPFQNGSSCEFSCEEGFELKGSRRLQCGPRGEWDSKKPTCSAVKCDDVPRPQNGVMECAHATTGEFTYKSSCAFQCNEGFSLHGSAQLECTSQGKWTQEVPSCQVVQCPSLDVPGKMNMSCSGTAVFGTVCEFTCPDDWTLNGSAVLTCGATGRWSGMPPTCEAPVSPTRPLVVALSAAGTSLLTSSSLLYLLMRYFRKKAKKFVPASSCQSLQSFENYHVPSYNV

HUVEC = conditions: as described in Sawada et al. (1993); cited from earlier work

## NeuNAcα2→3Galβ1→4-(Fucα1→3)GlcNAcβ1→3Galβ1→4Glc→Cer [sialyl Le^x glycolipid, reference compound]
[1]; SM cells
  inhibition of adhesion of SM cells to activated mouse tEnd.1 cells: inhibited by liposomes containing sialyl Le^x glycolipid in a dose-dependent manner
[1]; same carcinoma cells, same conditions, mouse vs human endothelial cells
  inhibition of adhesion to mouse cells compared with human endothelial cells: not as effective as the inhibition of the same carcinoma cells to human endothelial cells

## sialyl-Le^x-negative leukosialin: soluble leukosialin IgG chimeric protein lacking the sialyl-Le^x determinant, from control CHO cells without Fuc-TIII vector [reference compound]
[1]; SM cells
  inhibition of adhesion of SM cells to activated mouse tEnd.1 cells: inhibited the binding minimally
[1]; SM cells, listed as soluble sialyl Le^x negative leukosialin
  inhibition of adhesion of SM cells to activated mouse tEnd.1 cells: inhibited binding only minimally

## NeuNAcα2→3Galβ1→4GlcNAcβ1→3Galβ1→4Glc→Cer [sialyl paragloboside, reference compound]
[1]; SM cells
  inhibition of adhesion of SM cells to activated mouse tEnd.1 cells: did not inhibit the adhesion even at high concentrations

## sialyl-Le^x-positive leukosialin: soluble leukosialin fused to human IgG1 hinge plus constant region, from CHO cells expressing core 2 GlcNAc-transferase and Fuc-TIII; carries sialyl Le^x
[1]; SM cells
  inhibition of adhesion of SM cells to activated mouse tEnd.1 cells: inhibited the adhesion of SM cells to mouse tEnd.1 cells in a concentration-dependent manner
[1]; SM cells, listed as sialyl Le^x positive leukosialin
  inhibition of adhesion of SM cells to activated mouse tEnd.1 cells: inhibited the adhesion of SM cells to mouse tEnd.1 cells in a concentration dependent manner
[1]; SM cells, activated tEnd.1, concentration not stated in text (FIG. 5B)
  binding of SM cells to tEnd.1 cells, relative to control levels: 30 % of control levels

## soluble chimeric leukosialin-IgG protein, sialyl Le^x positive (from CHO-leu.C2GnT cells transfected with pSRα.s-leu.IgG and pcDNAI-Fuc.TIII) (from UniProt P16150 20-252; P01857 99-330) (Fc fusion)
[2]
  adhesion of SM cells to mouse tEnd.1 cells, percent of control (% of control levels): 30

B1: soluble lamp-1 containing the sialyl Le^x: soluble form of lysosomal membrane glycoprotein-1 from CHO cells co-transfected with Fuc-TIII vector; carries sialyl Le^x (protein)
chain: AMFMVKNGNGTACIMANFSAAFSVNYDTKSGPKNMTFDLPSDATVVLNRSSCGKENTSDPSLVIAFGRGHTLTLNFTRNATRYSVQLMSFVYNLSDTHLFPNASSKEIKTVESITDIRADIDKKYRCVSGTQVHMNNVTVTLHDATIQAYLSNSSFSRGETRCEQDRPSPTTAPPAPPSPSPSPVPKSPSVDKYNVSGTNGTCLLASMGLQLNLTYERKDNTTVTRLLNINPNKTSASGSCGAHLVTLELHSEGTTVLLFQFGMNASSSRFFLQGIQLNTILPDARDPAFKAANGSLRALQATVGNSYKCNAEEHVRVTKAFSVNIFKVWVQAFKVEGGQFGSVEECLLDENSM
[1]; SM cells
  inhibition of adhesion of SM cells to activated mouse tEnd.1 cells: able to inhibit the adhesion of SM cells to activated mouse tEnd.1 cells in a dose-dependent manner
HUVEC
  inhibition of binding of SP-pSRαlamp-1^H cells to HUVEC: inhibited the binding of the SP-pSRαlamp-1^H to HUVEC
